{"source": "patent US20240099214A1", "about": "“PLANT DEFENCE GENE EXPRESSION” (UPL Corporation Limited, priority 2021, published 2024)", "key": {"[1]": {"tested_on": "Nac transcription factor 29-like (gene 8, Solyc05g007770.2)", "assay": "qRT-PCR expression of gene 8 in tomato leaves", "assay_type": "in vivo, Tomato ecotype corbarino", "design": "key: relative expression normalized to a-tubulin housekeeping gene", "description": "(§1) Tomato ecotype “corbarino” reported to be susceptible to TSWV infection was used in the experiment. Plants were grown in pots in a climatic chamber with a photoperiod of 16/8 hour at 25° C.\n(§2) The viral strain (TSWV PV PV-0393) was utilized in the experiment. The virus was mechanically inoculated and propagated on tomato “corbarino”. The inoculum was prepared in an ice-cooled mortar grounding 1 gr of infected tomato tissue in 10 ml of Na-phosphate buffer 0.01M. The fresh prepared inoculum was stored in ice before use. Tomato plants at BBCH16 were dusted with Carborundum 600 mesh and selected leaves were rubbed with some droplets of inoculum. After 5 min. plants were sprayed with sterile water to remove the excess of inoculum and preserve the cell turgor.\n(§3) Four treatments were compared: i) Mock inoculated; ii) TSWV; iii) 0.25% Laminarin; iv) 0.25% Laminarin+TSWV. In the last treatment the virus was inoculated 24 hrs after the laminarin application.\n(§4) Total RNA was extracted from systemic infected tomato leaves by using the Quick-RNA Plant Kit (Zymo Research) following the manufacturer instructions. The extractions were carried out using three plants after 12 h, 24 h, 48 h, 72 h, 7 days after inoculation. Leaves were instantly frozen in liquid nitrogen after cutting to avoid any deterioration of the sample as well as any defense reaction. The RNA concentration was quantified by measuring the absorbance at 260 nm using a Nanodrop 2000 (Thermofisher). The purity of all of the RNA samples was assessed at an absorbance ratio of OD260/280 and OD260/230, while its structural integrity was checked by agarose gel electrophoresis. Only high-quality RNA with OD 260/280 and OD 260/230>2 was used for subsequent steps. Single-stranded cDNA was synthesized from 1 μg of total RNA using an iScript™ Select cDNA Synthesis Kit and random hexamers as primers (Bio-Rad, Milan, Italy), according to the manufacturer's instructions. Three biological replicates were created from the 3 leaves collected to test 15 genes. Alpha tubulin was used as reference gene.\n(§5) qPCR reactions were performed with BioRad (Applied Biosystems, Foster City, CA, USA) using SYBR R Green. Each reaction was performed in 20 μl containing 10 μl of 2× Power SYBR Green PCR Master Mix (Life Technologies), 0.2-0.3 μM primers and cDNA samples diluted 1:20. Each qPCR reaction was performed in triplicate. Reactions were run using the cycling parameter described previously (Reid et al., 2006) and the qPCR data were analyzed by the Ct method (Pfaffl, 2001). In order to analyze the qPCR data, a-tubulin gene was used as housekeeping to determine the relative expression level of the other genes analyzed in this work. For the determination of qPCR efficiency of each primer pairs, a standard curve was performed using the following cDNA dilutions: 1:4, 1:16, 1:64; 1:256 and 1:1024. Every measurement was made in triplicate. The corresponding qPCR efficiencies (E) were calculated for every primer pair with the software 7300 System SDS software (Applied Biosystems, Foster City, CA, USA) according to the equation E=(10−1/slope−1)×100 (Rutledge and Stewart, 2008).\n(§6) The significance of the differences between the gene expressions levels were compared by one-way ANOVA (p=0.01) and the means were separated by Tukey post-hoc test using SPSS ver.26 ([…])."}, "[2]": {"tested_on": "Subtilisin-like protease-like (gene 9, Solyc01g087800.2)", "assay": "qRT-PCR expression of gene 9 in tomato leaves", "assay_type": "in vivo, Tomato ecotype corbarino", "design": "key to RQ1 / RQ2 / RQ3 / RQ mean: relative expression normalized to a-tubulin housekeeping gene", "description": "as §1, §2, §3, §4, §5, §6"}}, "data": [{"substance": "laminarin", "values": [{"measurement": "RQ1", "setting": "[1]; 12 hr, Laminarin + virus", "value": 0.9892}, {"measurement": "RQ2", "setting": "[1]; 12 hr, Laminarin + virus", "value": 10.375}, {"measurement": "RQ3", "setting": "[1]; 12 hr, Laminarin + virus", "value": 10.132}, {"measurement": "RQ mean", "setting": "[1]; 12 hr, Laminarin + virus", "value": 10.133}, {"measurement": "RQ1", "setting": "[1]; 12 hr, Laminarin alone", "value": 0.8695}, {"measurement": "RQ2", "setting": "[1]; 12 hr, Laminarin alone", "value": 0.9166}, {"measurement": "RQ3", "setting": "[1]; 12 hr, Laminarin alone", "value": 10.042}, {"measurement": "RQ mean", "setting": "[1]; 12 hr, Laminarin alone", "value": 0.9301}, {"measurement": "RQ1", "setting": "[1]; 24 hr, Laminarin + virus", "value": 11.335}, {"measurement": "RQ2", "setting": "[1]; 24 hr, Laminarin + virus", "value": 11.617}, {"measurement": "RQ3", "setting": "[1]; 24 hr, Laminarin + virus", "value": 0.9361}, {"measurement": "RQ mean", "setting": "[1]; 24 hr, Laminarin + virus", "value": 10.771}, {"measurement": "RQ1", "setting": "[1]; 24 hr, Laminarin alone", "value": 12.571}, {"measurement": "RQ2", "setting": "[1]; 24 hr, Laminarin alone", "value": 13.299}, {"measurement": "RQ3", "setting": "[1]; 24 hr, Laminarin alone", "value": 11.584}, {"measurement": "RQ mean", "setting": "[1]; 24 hr, Laminarin alone", "value": 12.485}, {"measurement": "RQ1", "setting": "[1]; 48 hr, Laminarin + virus", "value": 13.157}, {"measurement": "RQ2", "setting": "[1]; 48 hr, Laminarin + virus", "value": 0.7588}, {"measurement": "RQ3", "setting": "[1]; 48 hr, Laminarin + virus", "value": 11.274}, {"measurement": "RQ mean", "setting": "[1]; 48 hr, Laminarin + virus", "value": 10.673}, {"measurement": "RQ1", "setting": "[1]; 48 hr, Laminarin alone", "value": 12.258}, {"measurement": "RQ2", "setting": "[1]; 48 hr, Laminarin alone", "value": 0.9690}, {"measurement": "RQ3", "setting": "[1]; 48 hr, Laminarin alone", "value": 15.958}, {"measurement": "RQ mean", "setting": "[1]; 48 hr, Laminarin alone", "value": 12.635}, {"measurement": "RQ1", "setting": "[1]; 72 hr, Laminarin + virus", "value": 48.220}, {"measurement": "RQ2", "setting": "[1]; 72 hr, Laminarin + virus", "value": 49.687}, {"measurement": "RQ3", "setting": "[1]; 72 hr, Laminarin + virus", "value": 22.018}, {"measurement": "RQ mean", "setting": "[1]; 72 hr, Laminarin + virus", "value": 39.975}, {"measurement": "RQ1", "setting": "[1]; 72 hr, Laminarin alone", "value": 24.387}, {"measurement": "RQ2", "setting": "[1]; 72 hr, Laminarin alone", "value": 43.671}, {"measurement": "RQ3", "setting": "[1]; 72 hr, Laminarin alone", "value": 32.797}, {"measurement": "RQ mean", "setting": "[1]; 72 hr, Laminarin alone", "value": 33.618}, {"measurement": "RQ1", "setting": "[2]; 12 hr, Laminarin + virus", "value": 0.9838}, {"measurement": "RQ2", "setting": "[2]; 12 hr, Laminarin + virus", "value": 0.8556}, {"measurement": "RQ3", "setting": "[2]; 12 hr, Laminarin + virus", "value": 10.797}, {"measurement": "RQ mean", "setting": "[2]; 12 hr, Laminarin + virus", "value": 0.9730}, {"measurement": "RQ1", "setting": "[2]; 12 hr, Laminarin alone", "value": 0.8527}, {"measurement": "RQ2", "setting": "[2]; 12 hr, Laminarin alone", "value": 0.8398}, {"measurement": "RQ3", "setting": "[2]; 12 hr, Laminarin alone", "value": 10.240}, {"measurement": "RQ mean", "setting": "[2]; 12 hr, Laminarin alone", "value": 0.9055}, {"measurement": "RQ1", "setting": "[2]; 24 hr, Laminarin + virus", "value": 0.8394}, {"measurement": "RQ2", "setting": "[2]; 24 hr, Laminarin + virus", "value": 10.098}, {"measurement": "RQ3", "setting": "[2]; 24 hr, Laminarin + virus", "value": 11.565}, {"measurement": "RQ mean", "setting": "[2]; 24 hr, Laminarin + virus", "value": 10.019}, {"measurement": "RQ1", "setting": "[2]; 24 hr, Laminarin alone", "value": 13.867}, {"measurement": "RQ2", "setting": "[2]; 24 hr, Laminarin alone", "value": 0.9303}, {"measurement": "RQ3", "setting": "[2]; 24 hr, Laminarin alone", "value": 10.466}, {"measurement": "RQ mean", "setting": "[2]; 24 hr, Laminarin alone", "value": 11.212}, {"measurement": "gene 9 expression compared to TSWV treatment", "setting": "[2]; 48 hr, 0.25% laminarin + TSWV inoculated 24 hrs later", "value": "inverted"}, {"measurement": "gene 9 expression compared to TSWV treatment", "setting": "[2]; 48 hr, 0.25% laminarin alone", "value": "inverted"}, {"measurement": "RQ1", "setting": "[2]; 48 hr, Laminarin + virus", "value": 15.088}, {"measurement": "RQ2", "setting": "[2]; 48 hr, Laminarin + virus", "value": 17.637}, {"measurement": "RQ3", "setting": "[2]; 48 hr, Laminarin + virus", "value": 13.474}, {"measurement": "RQ mean", "setting": "[2]; 48 hr, Laminarin + virus", "value": 15.400}, {"measurement": "RQ1", "setting": "[2]; 48 hr, Laminarin alone", "value": 16.481}, {"measurement": "RQ2", "setting": "[2]; 48 hr, Laminarin alone", "value": 15.436}, {"measurement": "RQ3", "setting": "[2]; 48 hr, Laminarin alone", "value": 13.847}, {"measurement": "RQ mean", "setting": "[2]; 48 hr, Laminarin alone", "value": 15.255}, {"measurement": "RQ1", "setting": "[2]; 72 hr, Laminarin + virus", "value": 0.9998}, {"measurement": "RQ2", "setting": "[2]; 72 hr, Laminarin + virus", "value": 10.127}, {"measurement": "RQ3", "setting": "[2]; 72 hr, Laminarin + virus", "value": 0.9578}, {"measurement": "RQ mean", "setting": "[2]; 72 hr, Laminarin + virus", "value": 0.9901}, {"measurement": "RQ1", "setting": "[2]; 72 hr, Laminarin alone", "value": 16.204}, {"measurement": "RQ2", "setting": "[2]; 72 hr, Laminarin alone", "value": 0.7923}, {"measurement": "RQ3", "setting": "[2]; 72 hr, Laminarin alone", "value": 18.354}, {"measurement": "RQ mean", "setting": "[2]; 72 hr, Laminarin alone", "value": 14.160}, {"measurement": "gene 9 expression", "setting": "[2]; 72 hr, after the treatment with laminarin", "value": "no clear overexpression"}]}]}
